Where two headings read alike, the source gives them in different places. Each block holds one molecule with its values, some of them ahead of it.
Key:
[1] = Tissue distribution after single oral SZ-A (40 mg/kg) in SD rats, plasma and 12 tissues; assay type: in vivo; conditions: for CLz / Vz / half-life / Cmax: n=5; for half-life / AUC(0-t) / Tmax / Cmax: rat; for AUC(0-t): n=5, read-out: AUC(0-t); for accumulation in tissues: up to 12 h
Experimental: Twenty SD rats were randomly classified into four groups corresponding to four-time points (5 and 30 min, 4 and 12 h) (n = 20; 5 animals per time point) that received SZ-A solution (40 mg/kg) via oral administration. After the completion of dose administration, plasma and tissue samples (derived from the heart, liver, spleen, lung, kidney, aortic blood vessels, brown adipose tissue, subcutaneous adipose tissue, abdominal adipose tissue, muscle (thigh skeletal muscle), pancreas, and brain) were collected at predetermined time points. Twenty-eight ICR mice were randomly classified into four groups (n = 7 per group) corresponding to four-time points (5 and 30 min, 4 and 12 h) that received SZ-A solution (20 mg/kg) via oral administration. After the completion of dose administration, tissue samples (derived from the heart, liver, spleen, lung, kidney, aortic blood vessels, brown adipose tissue, abdominal adipose tissue, muscle (thigh skeletal muscle), pancreas, and brain) were collected at predetermined time points.
Collected tissue samples were washed with normal saline. The surface moisture was removed by blotting gently with filter paper, and the weight was recorded. After adding an appropriate amount of normal saline, these tissue samples were ground into homogenates using a cryogenic grinder (JX-CL, Shanghai Jingxin, Shanghai, China). The obtained homogenates were stored at −80°C until LC-MS/MS analysis.
Primary pharmacokinetic parameters, including Cmax, Tmax, area under the plasma concentration-time curve (AUC), t1/2, clearance rate, and the apparent volume of distribution, were calculated using DAS 3.2.8 (Bio Guider Co., Shanghai, China).

[2] = design: method as in Nakagawa et al., 2007; conditions: rats, after oral gavage of DNJ; ref Nakagawa et al., 2007; cited from earlier work
[3] = Sprague-Dawley, Brown adipose tissue
[4] = Sprague-Dawley, Brown adipose tissue, n=5, read-out: Tmax
[5] = Sprague-Dawley, Kidney, n=5, read-out: Tmax
[6] = Sprague-Dawley, Liver, n=5, read-out: Tmax
[7] = Sprague-Dawley, Lung, n=5, read-out: Tmax
[8] = Sprague-Dawley, Pancreas, n=5, read-out: Tmax
[9] = Sprague-Dawley, Plasma, n=5, read-out: Tmax
[10] = Sprague-Dawley, muscle (thigh skeletal muscle), Muscle
[11] = Sprague-Dawley, muscle (thigh skeletal muscle), Muscle, n=5, read-out: Tmax
[12] = Abdominal adipose tissue, n=5, read-out: Tmax
[13] = Aortic blood vessels, n=5, read-out: Tmax
[14] = Subcutaneous adipose tissue, n=5, read-out: Tmax
[15] = other tissues (not named), tissues not named separately for that alkaloid, read-out: time of peak concentration in other tissues (converted)

peak time in the brain [1]: 4 h
CLz ([1]; Plasma): 35.7 ± 5.17 mL/min/kg
Vz ([1]; Plasma): 1.59 ± 0.29 L/kg
half-life [1, 3]: 26.4 ± 13.2 min
AUC(0-t) [1, 3]: 3750 ± 995 ng·h/mL
Tmax [1, 4]: 30 min
Cmax ([1]; Sprague-Dawley, Kidney): 68200 ± 12400 ng/mL
half-life ([1]; Sprague-Dawley, Kidney): 148 ± 30.6 min
AUC(0-t) ([1]; Sprague-Dawley, Kidney): 174000 ± 37100 ng·h/mL
Tmax [1, 5]: 30 min
Cmax ([1]; Sprague-Dawley, Liver): 3300 ± 893 ng/mL
half-life ([1]; Sprague-Dawley, Liver): 33 ± 0.6 min
AUC(0-t) ([1]; Sprague-Dawley, Liver): 7560 ± 1840 ng·h/mL
Tmax [1, 6]: 25.2 ± 11.4 min
Cmax ([1]; Sprague-Dawley, Lung): 806 ± 23.5 ng/mL
half-life ([1]; Sprague-Dawley, Lung): 28.2 ± 14.4 min
Tmax [1, 7]: 13.2 ± 14.4 min
Cmax ([1]; Sprague-Dawley, Pancreas): 386 ± 124 ng/mL
half-life ([1]; Sprague-Dawley, Pancreas): 130 ± 205 min
AUC(0-t) ([1]; Sprague-Dawley, Pancreas): 2190 ± 614 ng·h/mL
Tmax [1, 8]: 30 min
Cmax ([1]; Sprague-Dawley, Plasma): 5830 ± 843 ng/mL
half-life ([1]; Sprague-Dawley, Plasma): 31.2 ± 1.2 min
AUC(0-t) ([1]; Sprague-Dawley, Plasma): 13700 ± 1970 ng·h/mL
Tmax [1, 9]: 30 min
Cmax [1, 10]: 725 ± 279 ng/mL
half-life [1, 10]: 45.6 ± 18 min
AUC(0-t) [1, 10]: 2640 ± 544 ng·h/mL
Tmax [1, 11]: 19.8 ± 13.8 min
Cmax ([1]; Abdominal adipose tissue): 1270 ± 428 ng/mL
half-life ([1]; Abdominal adipose tissue): 102 ± 135 min
AUC(0-t) ([1]; Abdominal adipose tissue): 3730 ± 1010 ng·h/mL
Tmax [1, 12]: 25.2 ± 11.4 min
Cmax ([1]; Aortic blood vessels): 4360 ± 2870 ng/mL
half-life ([1]; Aortic blood vessels): 36 ± 6.6 min
AUC(0-t) ([1]; Aortic blood vessels): 6230 ± 1790 ng·h/mL
Tmax [1, 13]: 4.8 min
Cmax ([1]; Brain): 242 ± 50.3 ng/mL
half-life ([1]; Brain): 482 ± 430 min
AUC(0-t) ([1]; Brain): 2060 ± 562 ng·h/mL
Tmax ([1]; Brain, n=5, read-out: Tmax): 151 ± 122 min
Cmax ([1]; Brown adipose tissue): 1420 ± 513 ng/mL
Cmax ([1]; Heart): 588 ± 140 ng/mL
half-life ([1]; Heart): 31.8 ± 11.4 min
AUC(0-t) ([1]; Heart): 1340 ± 373 ng·h/mL
Tmax ([1]; Heart, n=5, read-out: Tmax): 10.2 ± 11.4 min
AUC(0-t) ([1]; Lung): 1220 ± 501 ng·h/mL
Cmax ([1]; Spleen): 660 ± 225 ng/mL
half-life ([1]; Spleen): 37.2 ± 1.8 min
AUC(0-t) ([1]; Spleen): 1880 ± 845 ng·h/mL
Tmax ([1]; Spleen, n=5, read-out: Tmax): 30 min
Cmax ([1]; Subcutaneous adipose tissue): 577 ± 163 ng/mL
half-life ([1]; Subcutaneous adipose tissue): 37.8 min
AUC(0-t) ([1]; Subcutaneous adipose tissue): 1210 ± 304 ng·h/mL
Tmax [1, 14]: 30 min
Tmax ([1]; heart, aortic vessels, read-out: time of peak concentration in heart and aortic vessels (converted)): 5 min
Tmax [1, 15]: 30 min
accumulation in tissues [1]: no long-term accumulation
Compound: OC[C@H]1NC[C@H](O)[C@@H](O)[C@@H]1O [DNJ, 1-deoxynojirimycin]
tissues with the highest concentrations [1]: kidney, followed by the liver, aortic vessels, and brown adipose tissue
DNJ metabolites in plasma [2]: did not detect any DNJ metabolites

time of maximum drug concentration in heart, muscle, lung, and aortic vessels [1]: 5 min
CLz ([1]; Plasma): 65.8 ± 15 mL/min/kg
Vz ([1]; Plasma): 4.39 ± 2.04 L/kg
half-life [1, 3]: 139 ± 139 min
AUC(0-t) [1, 3]: 1480 ± 380 ng·h/mL
Tmax [1, 4]: 19.8 ± 13.8 min
Cmax ([1]; Sprague-Dawley, Kidney): 8970 ± 1680 ng/mL
half-life ([1]; Sprague-Dawley, Kidney): 139 ± 72.6 min
AUC(0-t) ([1]; Sprague-Dawley, Kidney): 27000 ± 8880 ng·h/mL
Tmax [1, 5]: 25.2 ± 11.4 min
Cmax ([1]; Sprague-Dawley, Liver): 1130 ± 187 ng/mL
half-life ([1]; Sprague-Dawley, Liver): 36 ± 0.6 min
AUC(0-t) ([1]; Sprague-Dawley, Liver): 2990 ± 1030 ng·h/mL
Tmax [1, 6]: 25.2 ± 11.4 min
Cmax ([1]; Sprague-Dawley, Lung): 248 ± 5.46 ng/mL
half-life ([1]; Sprague-Dawley, Lung): 31.2 ± 15.6 min
Tmax [1, 7]: 13.2 ± 14.4 min
Cmax ([1]; Sprague-Dawley, Pancreas): 96.9 ± 13.9 ng/mL
half-life ([1]; Sprague-Dawley, Pancreas): 42 ± 2.4 min
AUC(0-t) ([1]; Sprague-Dawley, Pancreas): 705 ± 118 ng·h/mL
Tmax [1, 8]: 114 ± 115 min
Cmax ([1]; Sprague-Dawley, Plasma): 692 ± 135 ng/mL
half-life ([1]; Sprague-Dawley, Plasma): 46.8 ± 22.8 min
AUC(0-t) ([1]; Sprague-Dawley, Plasma): 1800 ± 421 ng·h/mL
Tmax [1, 9]: 25.2 ± 11.4 min
Cmax [1, 10]: 175 ± 91.2 ng/mL
half-life [1, 10]: 40.8 ± 2.4 min
AUC(0-t) [1, 10]: 577 ± 298 ng·h/mL
Tmax [1, 11]: 19.8 ± 13.8 min
Cmax ([1]; Abdominal adipose tissue): 221 ± 137 ng/mL
half-life ([1]; Abdominal adipose tissue): 38.4 ± 15 min
AUC(0-t) ([1]; Abdominal adipose tissue): 409 ± 127 ng·h/mL
Tmax [1, 12]: 25.2 ± 11.4 min
Cmax ([1]; Aortic blood vessels): 1090 ± 760 ng/mL
half-life ([1]; Aortic blood vessels): 27 ± 14.4 min
AUC(0-t) ([1]; Aortic blood vessels): 1060 ± 367 ng·h/mL
Tmax [1, 13]: 4.8 min
Cmax ([1]; Brown adipose tissue): 463 ± 161 ng/mL
Cmax ([1]; Heart): 128 ± 33.6 ng/mL
half-life ([1]; Heart): 42.6 ± 0.6 min
AUC(0-t) ([1]; Heart): 382 ± 246 ng·h/mL
Tmax ([1]; Heart, n=5, read-out: Tmax): 10.2 ± 11.4 min
AUC(0-t) ([1]; Lung): 367 ± 136 ng·h/mL
Cmax ([1]; Spleen): 198 ± 77.7 ng/mL
half-life ([1]; Spleen): 42 ± 4.8 min
AUC(0-t) ([1]; Spleen): 491 ± 264 ng·h/mL
Tmax ([1]; Spleen, n=5, read-out: Tmax): 30 min
Cmax ([1]; Subcutaneous adipose tissue): 102 ± 52 ng/mL
half-life ([1]; Subcutaneous adipose tissue): 44.4 ± 1.8 min
AUC(0-t) ([1]; Subcutaneous adipose tissue): 212 ± 95 ng·h/mL
Tmax [1, 14]: 15 ± 13.8 min
Tmax [1, 15]: 30 min
accumulation in tissues [1]: no long-term accumulation
Compound: OC[C@H]1NCC[C@@H](O)[C@@H]1O [FA, fagomine]
tissues with the highest concentrations [1]: kidney, followed by the liver, aortic vessels, and brown adipose tissue
